Experimental data: publication PMC10914731, “Homo-BacPROTAC-induced degradation of ClpC1 as a strategy against drug-resistant mycobacteria” (Nature Communications, 2024)
≈ marks a conversion by molar mass, not a printed value. Where “and” joins values, the source holds several entries; their conditions need not be identical. Equal values may be shown once. Read-outs that look alike come from different tables or passages of the source. Where a SMILES comes first, the peptide text is derived from it. [ ]: non-standard residue; d: D form. NMeLeu(5-OH,4R) = CN[C@@H](C[C@@H](C)CO)C(=O)O; Phe(βR-OMe) = CO[C@H](c1ccccc1)[C@H](N)C(=O)O; Trp(1-Me) = Cn1cc(C[C@H](N)C(=O)O)c2ccccc21; NMeL = CN[C@@H](CC(C)C)C(=O)O; Pra = C#CC[C@H](N)C(=O)O

How the values were obtained:
[1] = tested on: M. tuberculosis H37Rv (ATCC 27294); experiment: microbe, parasite or virus in culture; format: cell-based
Mtb # 11291 = experiment: microbe, parasite or virus in culture; format: cell-based; conditions: for MIC: read-out: MIC Mtb # 11291
Klebsiella pneumoniae = experiment: MIC ESKAPES panel, Klebsiella pneumoniae; format: cell-based
Protocol: Minimum inhibitory concentration (MIC) against ESKAPES panel of Gram positive and Gram negative pathogens (Enterococcus faecium, Staphylococcus aureus, Klebsiella pneumoniae, Acinetobacter baumannii, Pseudomonas aeruginosa, Enterobacter cloacae and Salmonella typhimurium [ESKAPES panel]) were determined at the FNDR by the standard broth dilution method [CLSI, M100]. […] Mueller Hinton broth (MHB) medium was used to grow ESKAPES panel strains. The individual cultures were added as 200 μL (inoculum of 3–7 × 10^5 cfu/ml) to the respective assay plates in each well to all columns, except the media control (200 μL of medium). […] The assay plates were incubated at 37 °C, and the results were noted on the 2nd day as turbidometric readout. The clear wells indicated inhibition of growth, while the turbid wells indicated uninhibited growth.

[2] = tested on: non-replicating cells of Mtb H37Rv; format: cell-based, Mycobacterium tuberculosis; conditions: three replicate columns
Msm 607 = experiment: microbe, parasite or virus in culture; format: cell-based
[3] = M. tuberculosis H37Rv 27294, single well replicates, read-out: MIC
[4] = Mycobacterium tuberculosis, M. tuberculosis H37Rv 27294, single well replicates, read-out: MIC
[5] = Mycobacterium tuberculosis, Mtb H37Rv, mean ± SD, n = 3 well replicates, read-out: MIC
[6] = Mycobacterium tuberculosis, Set 1, read-out: MIC (Mtb H37Rv) Set 1
[7] = Mycobacterium tuberculosis, Set 2, read-out: MIC (Mtb H37Rv) Set 2
[8] = Mycobacterium tuberculosis, Set 3, done at a different day than Set 1 and Set 2, read-out: MIC (Mtb H37Rv) Set 3
[9] = Mycobacterium tuberculosis, individual example (Supplementary Table 11), read-out: MIC Mtb H37Rv
[10] = Mycobacterium tuberculosis, mean of 3 experiments +/- SD, unit taken from the sets above in the same table, read-out: MIC data (Mtb H37Rv) (+/- SD)
[11] = Klebsiella pneumoniae, Gram negative, n = 3 well replicates
[12] = Klebsiella pneumoniae, Gram-Negative Bacteria, replicates 1-3
[13] = Mycolicibacterium smegmatis, 607, read-out: MIC Msm #607, individual example (Supplementary Table 11)
[14] = Mycolicibacterium smegmatis, ATCC607, Set-3, done at a different day than Set 1 and Set 2, read-out: MIC (Msm ATCC607) Set-3
[15] = Mycolicibacterium smegmatis, ATCC607, mean of 3 experiments ± SD, read-out: MIC including standard deviations (Msm ATCC607)

Structure (SMILES)	MIC [1, 3] [µM]	MIC [1, 4] [µM]	MIC [1, 5] [µM]	MIC [1, 6]	MIC [1, 7]	MIC [1, 8]	MIC [1, 9]	MIC [1, 10]	MIC Mtb # 11291 (Mtb # 11291; single well replicates) [µg/mL]	MIC (Mtb # 11291; single well replicates) [µM]	MIC (Klebsiella pneumoniae; [11]) [µM]	MIC (Klebsiella pneumoniae; [12])	Supplementary Figure 2 dose-response value, starvation-induced non-replicating H37Rv cells ([2]; Conc. 0.0488281 µM)	Supplementary Figure 2 dose-response value, starvation-induced non-replicating H37Rv cells ([2]; Conc. 0.0976562 µM)	Supplementary Figure 2 dose-response value, starvation-induced non-replicating H37Rv cells ([2]; Conc. 0.195312 µM)	Supplementary Figure 2 dose-response value, starvation-induced non-replicating H37Rv cells ([2]; Conc. 0.390625 µM)	Supplementary Figure 2 dose-response value, starvation-induced non-replicating H37Rv cells ([2]; Conc. 0.78125 µM)	Supplementary Figure 2 dose-response value, starvation-induced non-replicating H37Rv cells ([2]; Conc. 1.5625 µM)	Supplementary Figure 2 dose-response value, starvation-induced non-replicating H37Rv cells ([2]; Conc. 3.125 µM)	Supplementary Figure 2 dose-response value, starvation-induced non-replicating H37Rv cells ([2]; Conc. 6.25 µM)	also measured
C#CC[C@@H]1NC(=O)[C@H](CC(C)C)N(C)C(=O)[C@H](C(C)C)NC(=O)[C@H]([C@H](OC)c2ccccc2)NC(=O)[C@H](C)NC(=O)[C@H](C[C@@H](C)CO)N(C)C(=O)[C@H](Cc2cn(C)c3ccccc23)NC1=O [Compound 10] (cyclo(A[Phe(βR-OMe)]V[NMeL][Pra][Trp(1-Me)][NMeLeu(5-OH,4R)]))	3.125 (≈ 2.85 µg/mL)	3.12 (≈ 2.85 µg/mL)	3.1 (≈ 2.83 µg/mL)	3.13 µM and 2.85 µg/mL	3.13 µM and 2.85 µg/mL	3.13 µM and 2.85 µg/mL	3.1 µM and 2.9 µg/mL	3.13 µM and 2.85 µg/mL	0.36 (≈ 0.394 µM)	0.39 (≈ 0.356 µg/mL)	> 50	> 45.6 µg/mL	91.338 and 78.4072 and 99.8789	83.6098 and 87.8245 and 85.6175	83.554 and 88.4379 and 86.5417	81.2435 and 84.4384 and 85.1554	80.3114 and 85.7211 and 82.4466	81.8012 and 82.096 and 79.8971	77.0129 and 81.0842 and 77.6981	66.8627 and 77.4193 and 82.598	MIC ([1]; Mycobacterium tuberculosis, M. tuberculosis H37Rv strain, read-out: MIC Mtb H37Rv Mean ± SD): 3.1 µM (≈ 2.83 µg/mL); MIC ([1]; Mycobacterium tuberculosis, Mtb H37Rv (Supplementary Table 2), read-out: MIC Mtb): 3.1 µM (≈ 2.83 µg/mL); MIC ([1]; Mycobacterium tuberculosis, individual measurements (source data), read-out: Mtb MIC): 3.12 µM (≈ 2.85 µg/mL); MIC ([1]; Mycobacterium tuberculosis, single determinations, read-out: Mtb MIC): 3.12 µM (≈ 2.85 µg/mL); MIC ([1]; individual measurements (source data), read-out: Mtb MIC): 3.125 µM (≈ 2.85 µg/mL); MIC (Klebsiella pneumoniae; Gram-Negative Bacteria, replicates 1-3): >50 µM; Supplementary Figure 2 dose-response value, starvation-induced non-replicating H37Rv cells ([2]; Conc. 25 µM): 73.1408 and 72.615 and 70.6073; Supplementary Figure 2 dose-response value, starvation-induced non-replicating H37Rv cells ([2]; Conc. 50 µM): 65.1656 and 61.5724 and 59.0468; Supplementary Figure 2 dose-response value, starvation-induced non-replicating H37Rv cells ([2]; Conc. 100 µM): 53.5574 and 51.9958 and 57.3099; MIC (Msm 607; Mycolicibacterium smegmatis, 607, read-out: MIC Msm 607): 3.1 µM (≈ 2.83 µg/mL); MIC (Msm 607; [13]): 6.3 µM and 5.7 µg/mL; MIC (Msm 607; Mycolicibacterium smegmatis, 607, read-out: Msm 607 MIC, single determinations): 3.12 µM (≈ 2.85 µg/mL); MIC (Msm 607; Mycolicibacterium smegmatis, ATCC607, Set-1, read-out: MIC (Msm ATCC607) Set-1): 3.12 µM and 2.85 µg/mL; MIC (Msm 607; Mycolicibacterium smegmatis, ATCC607, Set-2, read-out: MIC (Msm ATCC607) Set-2): 6.25 µM and 5.71 µg/mL; MIC (Msm 607; [14]): 3.12 µM and 2.85 µg/mL; MIC (Msm 607; [15]): 4.16 µM and 3.8 µg/mL
COc1c(N2C[C@@H]3CCCN[C@@H]3C2)c(F)cc2c(=O)c(C(=O)O)cn(C3CC3)c12 [Moxifloxacin, reference compound]	0.16 (≈ 0.0642 µg/mL)	0.16 (≈ 0.0642 µg/mL)	0.2 (≈ 0.0803 µg/mL)	0.07 µM and 0.03 µg/mL	0.15 µM and 0.06 µg/mL	0.07 µM and 0.03 µg/mL	0.1 µM and 0.03 µg/mL	0.1 µM and 0.04 µg/mL	0.10 (≈ 0.249 µM)	0.24 (≈ 0.0963 µg/mL)	1.3	1.25 µM and 0.5 µg/mL	96.0307 and 94.5408 and 97.6321	87.2508 and 88.414 and 86.3824	85.0837 and 87.4102 and 85.2989	85.4263 and 85.2112 and 85.8964	82.9485 and 82.598 and 80.152	77.7618 and 79.2358 and 77.6503	77.3794 and 79.3075 and 79.2756	72.6389 and 74.9414 and 71.1889	MIC (Mtb # 11291; Mycobacterium tuberculosis, mean, n = 2 well replicates): 0.2 µM (≈ 0.0803 µg/mL); MIC (Mtb # 11291; Mycobacterium tuberculosis, single well replicates): 0.24 µM (≈ 0.0963 µg/mL); Supplementary Figure 2 dose-response value, starvation-induced non-replicating H37Rv cells ([2]; Conc. 25 µM): 59.9471 and 62.2337 and 59.4213; Supplementary Figure 2 dose-response value, starvation-induced non-replicating H37Rv cells ([2]; Conc. 50 µM): 60.21 and 62.4647 and 60.935; Supplementary Figure 2 dose-response value, starvation-induced non-replicating H37Rv cells ([2]; Conc. 100 µM): 55.7882 and 57.6844 and 55.7723; MIC (Msm 607; [13]): 0.1 µM and 0.1 µg/mL; MIC (Msm 607; [14]): 0.15 µM and 0.06 µg/mL; MIC (Msm 607; [15]): 0.015 µM and 0.06 µg/mL; MIC (Msm 607; Mycolicibacterium smegmatis, ATCC607, read-out: MIC (Msm ATCC607) Set-1): 0.15 µM and 0.06 µg/mL; MIC (Msm 607; Mycolicibacterium smegmatis, ATCC607, read-out: MIC (Msm ATCC607) Set-2): 0.15 µM and 0.06 µg/mL
